Our source for the relative viability values is the supplement of paper PMC10307832.

Common to all, as to test: relative viability (nuclei count vs DMSO), 5 days (fraction); higher = more cells survive
Compound in assay [1]: C1=CC=C2C(=C1)C=CC(=C2SSC3=C(C=CC4=CC=CC=C43)O)O [IPA-3] + CS(=O)(=O)N1CCN(Cc2cc3nc(-c4cccc5[nH]ncc45)nc(N4CCOCC4)c3s2)CC1 [Pictilisib] (partner 1 µM)
The procedure, abridged: (§1)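 Five library-drug doses in √10 steps were combined with a fixed anchor-drug dose, or a single drug was given alone, by pin tool to lung cancer cell lines in 1536-well plates the day after seeding. Nuclei were stained and counted after 5 days. Relative viability is the nuclei count in treated wells over that in vehicle wells, taken as the median of duplicate plates.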

Compound in assay [2]: Cn1c(Nc2ccc(C(F)(F)F)cc2)nc2cc(Oc3ccnc(-c4ncc(C(F)(F)F)[nH]4)c3)ccc21 [RAF265] + CC(=O)Nc1cccc(-n2c(=O)n(C3CC3)c(=O)c3c(Nc4ccc(I)cc4F)n(C)c(=O)c(C)c32)c1 [Trametinib] (partner 0.02 µM)
The procedure, abridged: as §1

Compound in assay [3]: Cn1c(Nc2ccc(C(F)(F)F)cc2)nc2cc(Oc3ccnc(-c4ncc(C(F)(F)F)[nH]4)c3)ccc21 [RAF265] + CC(=O)c1c(C)c2cnc(Nc3ccc(N4CCNCC4)cn3)nc2n(C2CCCC2)c1=O [Palbociclib] (partner 0.5 µM)
In outline:
as §1

Compound in assay [4]: Cn1c(Nc2ccc(C(F)(F)F)cc2)nc2cc(Oc3ccnc(-c4ncc(C(F)(F)F)[nH]4)c3)ccc21 [RAF265] + NC(=O)Nc1cc(-c2cccc(F)c2)sc1C(=O)N[C@H]1CCCNC1 [AZD7762] (partner 0.2 µM)
The procedure, abridged:
as §1

HARA: the relative viability in assay [1] (first compound 0.2 µM) came out at 0.452; in assay [1] (first compound 0.6325 µM) it was 0.346; in assay [1] (first compound 2 µM), 0.333; in assay [1] (first compound 6.325 µM) it was 0.4; in assay [1] (first compound 20 µM) it was 0.402; in assay [2] (first compound 0.01 µM), 0.771. Moreover, the relative viability in assay [2] (first compound 0.03162 µM) worked out at 0.484; in assay [2] (first compound 0.1 µM), 0.673; in assay [2] (first compound 0.3162 µM), 0.353; in assay [2] (first compound 1 µM), 0.308; in assay [3] (first compound 0.01 µM) it was 0.298; in assay [3] (first compound 0.03162 µM) it was 0.277. Also, the relative viability stood at 0.235 in assay [3] (first compound 0.1 µM); 0.215 in assay [3] (first compound 0.3162 µM); 0.178 in assay [3] (first compound 1 µM); 0.315 in assay [4] (first compound 0.01 µM); 0.128 in assay [4] (first compound 0.03162 µM); 0.303 in assay [4] (first compound 0.1 µM). Also, the relative viability in assay [4] (first compound 0.3162 µM) was 0.419; in assay [4] (first compound 1 µM) it was 0.221.

In the case of HCC-15, the relative viability in assay [1] (first compound 0.2 µM) was 0.853; in assay [1] (first compound 0.6325 µM), 0.783; in assay [1] (first compound 2 µM), 0.724; in assay [1] (first compound 6.325 µM) it was 0.776; in assay [1] (first compound 20 µM), 0.841; in assay [2] (first compound 0.01 µM) it was 0.346. Further, the relative viability in assay [2] (first compound 0.03162 µM) turned out to be 0.403; in assay [2] (first compound 0.1 µM), 0.379; in assay [2] (first compound 0.3162 µM) it was 0.338; in assay [2] (first compound 1 µM) it was 0.21; in assay [3] (first compound 0.01 µM) it was 0.71; in assay [3] (first compound 0.03162 µM) it was 0.825. For the same cell line, the relative viability was found to be 0.672 in assay [3] (first compound 0.1 µM); 0.537 in assay [3] (first compound 0.3162 µM); 0.27 in assay [3] (first compound 1 µM); 1.31 in assay [4] (first compound 0.01 µM); 1.17 in assay [4] (first compound 0.03162 µM); 1.12 in assay [4] (first compound 0.1 µM). Besides, the values for the relative viability in assay [4] (first compound 0.3162 µM) and in assay [4] (first compound 1 µM) were 1.27 and 1.18, respectively.

Take HCC-44: the relative viability in assay [1] (first compound 0.2 µM) came out at 0.605; in assay [1] (first compound 0.6325 µM), 1.49; in assay [1] (first compound 2 µM), 0.53; in assay [1] (first compound 6.325 µM), 1.04; in assay [1] (first compound 20 µM), 0.63; in assay [2] (first compound 0.01 µM), 0.938. The relative viability in assay [2] (first compound 0.03162 µM) turned out to be 1.02; in assay [2] (first compound 0.1 µM), 1.08; in assay [2] (first compound 0.3162 µM), 1.01; in assay [2] (first compound 1 µM), 0.966; in assay [3] (first compound 0.01 µM), 1.01; in assay [3] (first compound 0.03162 µM), 0.908. In addition, the relative viability in assay [3] (first compound 0.1 µM) was determined as 0.96; in assay [3] (first compound 0.3162 µM) it was 1.04; in assay [3] (first compound 1 µM), 1.01; in assay [4] (first compound 0.01 µM) it was 1; in assay [4] (first compound 0.03162 µM) it was 0.985; in assay [4] (first compound 0.1 µM), 1.03. Besides, the values for the relative viability in assay [4] (first compound 0.3162 µM) and in assay [4] (first compound 1 µM) were 1 and 0.955, respectively.

Turning to HCC-78, the relative viability in assay [1] (first compound 0.2 µM) came to 0.23; in assay [1] (first compound 0.6325 µM), 0.218; in assay [1] (first compound 2 µM) it was 0.229; in assay [1] (first compound 6.325 µM), 0.229; in assay [1] (first compound 20 µM) it was 0.282; in assay [2] (first compound 0.01 µM), 0.79. For the same cell line, the relative viability in assay [2] (first compound 0.03162 µM) is 0.913; in assay [2] (first compound 0.1 µM), 0.728; in assay [2] (first compound 0.3162 µM) it was 0.705; in assay [2] (first compound 1 µM), 0.537; in assay [3] (first compound 0.01 µM) it was 0.513; in assay [3] (first compound 0.03162 µM) it was 0.476. Besides, the relative viability came out at 0.458 in assay [3] (first compound 0.1 µM); 0.394 in assay [3] (first compound 0.3162 µM); 0.463 in assay [3] (first compound 1 µM); 0.634 in assay [4] (first compound 0.01 µM); 0.863 in assay [4] (first compound 0.03162 µM); 0.731 in assay [4] (first compound 0.1 µM). Further, the figures for the relative viability in assay [4] (first compound 0.3162 µM) and in assay [4] (first compound 1 µM) were 0.269 and 0.567, respectively.
